Usually GI50 stands for the concentration at which growth is held to half of that of the control. For orientation: LC50 means the concentration that kills 50% of the test population.

One compound from patent publication US9394299B2, “Rilyazine derivatives and compositions for the treatment of cancer” (Warner Babcock Institute for Green Chemistry, LLC, priority 2013, dated 2016) can be followed below.

For data set [1], the system named is 60 cell lines (human tumor cell lines of the cancer screening panel). The experiment in a line: NCI 60 cell line screening, single point dosing at 10 μM (SRB). The data set is classed as cell-based. Here is the method:
(§1) The screening is a two-stage process, beginning with the evaluation of all compounds against 60 cell lines at a single dose of 10^−5 M.
The human tumor cell lines of the cancer screening panel are grown in RPMI 1640 medium containing 5% fetal bovine serum and 2 mM L-glutamine. Cells are inoculated into 96 well microtiter plates in 100 μL at plating densities ranging from 5,000 to 40,000 cells/well depending on the doubling time of individual cell lines. After cell inoculation, the microtiter plates are incubated at 37° C., 5% CO2, 95% air and 100% relative humidity for 24 h prior to addition of experimental drugs.
After 24 h, two plates of each cell line are fixed in situ with TCA, to represent a measurement of the cell population for each cell line at the time of drug addition Time Zero (Tz). Experimental drugs are solubilized in dimethyl sulfoxide:glycerol 9:1 at 400-fold the desired final maximum test concentration and stored frozen at −70° C. prior to use. At the time of drug addition, an aliquot of frozen concentrate is thawed and diluted to twice the desired final maximum test concentration with complete medium containing 50 μg/ml gentamicin. Additional four, 10-fold or ½ log serial dilutions are made to provide a total of five drug concentrations plus control. Aliquots of 100 μl of these different drug dilutions are added to the appropriate microtiter wells already containing 100 μl of medium, resulting in the required final drug concentrations.
Positive control is prepared by adding the known anti-tumor agent adriamycin, NSC 123127, prepared and stored the same as the compounds for testing.
Following drug addition, the plates are incubated for an additional 48 h at 37° C., 5% CO2, 95% air, and 100% relative humidity. For adherent cells, the assay is terminated by the addition of cold TCA. Cells are fixed in situ by the gentle addition of 50 μl of cold 50% (w/v) TCA (final concentration, 10% TCA) and incubated for 60 minutes at 4° C. The supernatant is discarded, and the plates are washed five times with tap water and air dried. Sulforhodamine B (SRB) solution (100 μl) at 0.4% (w/v) in 1% acetic acid is added to each well, and plates are incubated for 10 minutes at room temperature. After staining, unbound dye is removed by washing five times with 1% acetic acid and the plates are air dried. Bound stain is subsequently solubilized with 10 mM trizma base, and the absorbance is read on an automated plate reader at a wavelength of 515 nm. For suspension cells, the methodology is the same except that the assay is terminated by fixing settled cells at the bottom of the wells by gently adding 50 μl of 80% TCA (final concentration, 16% TCA).
For the 1-dose 60 cell testing, the Growth Percent is calculated for each cell line/drug combination from the absorbance measurement for the no-drug control (C), the absorbance at time zero (Tz) and the absorbance measurement after incubation of the cells in the presence of drug (Ti): Growth Percent=[(Ti−Tz)/(C−Tz)]×100 for cell line/drug combinations for which Ti≧Tz. Growth Percent=[(Ti−Tz)/Tz]×100 for cell line/drug combinations for which Ti<Tz.
Calculation of the Growth Percent by these equations allows detection of both growth inhibition (Growth Percent values between 0 and 100) and lethality (Growth Percent values less than 0). For example, a Growth Percent value of 100 means no growth inhibition. A Growth Percent value of 40 would mean 60% growth inhibition. A Growth Percent value of 0 means no net growth over the course of the experiment, or “cytostatic”, no change by growth or cell death. A Growth Percent value of −40 would mean 40% lethality. A Growth Percent value of −100 means all cells are dead.
For 1-dose 60 cell testing, the Mean Growth Percent, Delta and Range across all 60 cell lines are also calculated. The Deviation of each cell line/drug combination from the Mean is also calculated and plotted: Deviation=Mean Growth Percent−Growth Percent […]

Data set [2] concerns OVCAR-5 (ovarian cancer). In words: NCI five point dosing, OVCAR-5. Type of data set: cell-based, human. Here is the method:
(§2) RL-4 was evaluated against the 60 cell panel at five concentration levels, 10^−8 M, 10^−7 M, 10^−6 M, 10^−5 M and 10^−4 M.
(§3) The human tumor cell lines of the cancer screening panel are grown in RPMI 1640 medium containing 5% fetal bovine serum and 2 mM L-glutamine. Cells are inoculated into 96 well microtiter plates in 100 μL at plating densities ranging from 5,000 to 40,000 cells/well depending on the doubling time of individual cell lines. After cell inoculation, the microtiter plates are incubated at 37° C., 5% CO2, 95% air and 100% relative humidity for 24 h prior to addition of experimental drugs. […]
(§4) Following drug addition, the plates are incubated for an additional 48 h at 37° C., 5% CO2, 95% air, and 100% relative humidity. […] Bound stain is subsequently solubilized with 10 mM trizma base, and the absorbance is read on an automated plate reader at a wavelength of 515 nm. […]
(§5) The percentage growth is calculated at each of the five drug concentrations levels using the seven absorbance measurements, namely absorbance at time zero (Tz), absorbance of control after incubation (C), and absorbance of test sample after incubation in the presence of drug at each of the five concentration levels (Ti). The Growth Percent is calculated as it was for the 1 dose assay: Growth Percent=[(Ti−Tz)/(C−Tz)]×100 for cell line/drug combinations for which Ti≧Tz. […]

In data set [3] the test system is MCF7 (Breast Cancer). The experiment in a line: NCI five point dosing, MCF7. The data set is classed as cell-based. As to conditions: Homo sapiens. On the procedure: as §2, §3, §4, §5
Data set [4] has as its system SK-MEL-5 (Melanoma). In words: NCI single point 10 μM, SK-MEL-5. The data set is classed as cell-based, human. As to conditions: 10^−5 M. Here is the method:
as §1, §3, §4
For the 1-dose 60 cell testing, the Growth Percent is calculated for each cell line/drug combination from the absorbance measurement for the no-drug control (C), the absorbance at time zero (Tz) and the absorbance measurement after incubation of the cells in the presence of drug (Ti): Growth Percent=[(Ti−Tz)/(C−Tz)]×100 for cell line/drug combinations for which Ti≧Tz. […]

[5] abbreviates: single dose 10^−5 M, 60 cell lines.
Where [6] appears, read: single point 10 μM, 60 cell lines.

“Also recorded” adds a separate entry of the source.

For `S=c1c2ncccc2c(-c2ccccn2)nn1C1CCCCC1` [RL-4, 7-cyclohexyl-5-(pyridin-2-yl)pyrido[2,3-d]pyridazine-8(7H)-thione], the concentration for 50% growth inhibition (GI50) in data set [1] (Homo sapiens, single point 10 μM, 22 of 60 cell lines, read-out: GI50 for 22 of 60 cell lines (NCI Results, single point, 10 μM)) is no more than 10 µM. Also, in data set [1] (Homo sapiens, single point 10 μM, all 60 cell lines, read-out: LC50 for all 60 cell lines tested (NCI Results, single point, 10 μM)), the LC50 was greater than 10 µM. Also, in data set [1] (setting [5]), the “Delta of Growth Percent across all cell lines” value is listed as 52.07, the “Mean Growth Percent across all cell lines” value stood at 59.94% and the “Range of Growth Percent across all cell lines” value came out at 121.36. Also, in data set [1] (single dose 10^−5 M, of 60 cell lines), the “number of cell lines with Growth Percentages greater than 90%” value stood at 6. Further, in data set [1] (setting [6]), the “anti-proliferative effect / growth inhibition (in words)” value is recorded as “significant growth inhibition in almost all cell lines; also recorded: has anti-proliferative effects; also recorded: showed cell growth inhibition across the screened cell lines; also recorded: significant growth inhibition in cancer cell lines” and the “toxicity / cell lethality (in words)” value is recorded as “relatively non-toxic; also recorded: no associated toxicity; also recorded: No Toxicity is observed”. Besides, the “number of cell lines with growth inhibition ≧50%” value in data set [1] (single point 10 μM, of 60 cell lines tested) was 22. Further, the Growth Percent in data set [2] (10^−4 M dose) stood at 54%. The concentration for 50% growth inhibition (GI50) in data set [2] (Homo sapiens, five point dosing) was greater than 100 µM. Further, the GI50 in data set [3] was 0.353 µM. For the same compound, the “Growth Percent” value in data set [4] is recorded as 7.87%.
